# In US20260256751A1, “COMBINATION OF BETA-2-ADRENERGIC RECEPTOR AGONISTS AND GLP-1 RECEPTOR AGONISTS FOR USE IN TREATING HYPERGLYCAEMIA” (ATROGI AB, priority 2023, published 2026):
# Experiments:
# [1] = system: differentiated L6-myotubes; assay: Glucose uptake screen (Biological example 1 of WO 2019/053427); format: cell-based; conditions: compound at 10 μM, activity relative to isoproterenol at 10 μM, read-out: Biological example 1 of WO 2019/053427 (GU)
# How it was run: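 Rat L6 myoblasts were differentiated into myotubes over 7 days in 2% FBS, then serum-starved overnight. Cells were stimulated with 1×10^−5 M compound plus β2 antagonist ICI-118551 for 1 h 40 min and re-dosed for 20 min in glucose-free medium. Uptake of 50 nM ^3H-2-deoxyglucose over 10 min was counted after NaOH lysis.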
# [2] = system: differentiated L6-myotubes; assay: cAMP production relative to isoprenaline (Biological example 2 of WO 2019/053427); format: cell-based; conditions: 0.25 h, compound at 10 μM, activity relative to isoproterenol at 10 μM
# How it was run: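 Differentiated L6 myotubes stimulated 15 min with test compound or isoprenaline, each at final 1×10^−5 M, in HBSS with 1% BSA, 5 mM HEPES, 1 mM IBMX, pH 7.4. cAMP production by the compound expressed relative to that induced by the same concentration of isoprenaline.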
Structure (SMILES),Emax at 10 µM [1] [%],Emax at 10 µM [2] [%]
"COCC12CCC([C@H](O)c3cccc(F)c3)(CC1)N2 [Compound 330, (R)-(m-fluorophenyl){4-(methoxymethyl)-7-azabicyclo[2.2.1]hept-1-yl}methanol]",> 75,< 25
"CO[C@H]1CC[C@H](CCC23CCC([C@H](O)c4cccc(F)c4)(CC2)N3)CC1 [Compound 411, (R)-(m-fluorophenyl)(4-{2-[(1r,4S)-4-methoxycyclohexyl]ethyl}-7-azabicyclo[2.2.1]hept-1-yl)methanol]",> 75,50 to 75
"O[C@@H](CNC[C@H]1CC[C@H](OCc2ccccc2)CC1)c1cccc(F)c1 [Compound 271, (R)-1-(m-fluorophenyl)-2-({[(1r,4R)-4-(benzyloxy)cyclohexyl]methyl}amino)-1-ethanol]",25 to 50,< 25
O[C@@H](c1cccc(F)c1)C12CCC(Cc3ccc(OC(F)(F)F)cc3)(CC1)N2 [Compound 500],< 25,< 25
"O[C@H](c1cccc(F)c1)C12CCC(CCCc3ccccc3)(CC1)N2 [Compound 536, (R)-(m-fluorophenyl){4-(3-phenylpropyl)-7-azabicyclo[2.2.1]hept-1-yl}methanol]",> 75,25 to 50
"CCCCNCC(O)c1ccc(F)c(N)c1F (stereo not shown) [Compound 43, 1-(3-amino-2,4-difluorophenyl)-2-(butylamino)-1-ethanol]",> 75,< 25
"CCCC12CCC([C@@H](O)c3cccc(F)c3)(CC1)N2 [Compound 182, (S)-(m-fluorophenyl)(- propyl-7-azabicyclo[2.2.1]hept-1-yl)methanol]",< 25,< 25
"CC(C)(C)NC[C@H](O)c1ccc(F)c(O)c1 [Compound 84, (R)-2-(tert-butylamino)-1-(4-fluoro-3-hydroxyphenyl)-1-ethanol]",> 75,50 to 75
"CCC[C@H]1CCC[C@@H]([C@@H](O)c2cccc(O)c2)N1 [Compound 121, (S)-[(2S,6S)-6-propyl-2-piperidyl](m-hydroxyphenyl)methanol]",> 75,< 25
"CO[C@H]1CC[C@H](C[C@H]2CC[C@H]([C@H](O)c3cncc(F)c3)N2)CC1 [Compound 341, (R)-[(2R,5R)-5-{[(1r,4R)-4-methoxycyclohexyl]methyl}-2-pyrrolidinyl](5-fluoro-3-pyridyl)methanol]",> 75,< 25
"CC(C)(C[C@H]1CC[C@H](NS(C)(=O)=O)CC1)NC[C@H](O)c1cncc(F)c1 [Compound 360, (R)-2-{1,1-dimethyl-2-[(1r,4R)-4-(mesylamino)cyclohexyl]ethylamino}-1-(5-fluoro-3-pyridyl)-1-ethanol]",> 75,< 25
"CO[C@H]1CC[C@H](CC(C)(C)NC[C@H](O)c2cncc(F)c2)CC1 [Compound 250, (R)-2-{1,1-dimethyl-2-[(1r,4R)-4-methoxycyclohexyl]ethyl-amino}-1-(5-fluoro-3-pyridyl)-1-ethanol]",50 to 75,< 25
"CC1(C)C[C@H]([C@@H](O)c2cccc(F)c2)N1 [Compound 201, (S)-[(R)-4,4-dimethyl-2-azetidinyl](m-fluorophenyl)methanol]",< 25,< 25
"CC12CC(C1)[C@@H]([C@@H](O)c1cccc(N)c1F)N2 [Compound 242, (S)-{(S)-1-methyl-2-azabicyclo[2.1.1]hex-3-yl}(3-amino-2-fluorophenyl)methanol]",50 to 75,< 25
"CC(C)(C[C@H]1CC[C@H](NS(C)(=O)=O)CC1)NC[C@H](O)c1cccc(C(F)(F)F)n1 [Compound 461, (S)-2-{1,1-dimethyl-2-[(1r,4S)-4-(mesylamino)cyclohexyl]ethylamino}-1-[6-(trifluoromethyl)-2-pyridyl]-1-ethanol]",25 to 50,< 25
"CC(=O)N[C@H]1CC[C@H](CCC(C)(C)NC[C@H](O)c2cncc(F)c2)CC1 [Compound 361, N-[(1R,4r)-4-{3-[(R)-2-(5-fluoro-3-pyridyl)-2-hydroxyethylamino]-3-methlbutyl}cyclohexyl]acetamide]",> 75,< 25
"CC(C)(C[C@H]1CC[C@@H](NS(C)(=O)=O)CC1)NC[C@H](O)c1cncc(F)c1 [Compound 468, (R)-2-{1,1-dimethyl-2-[(1s,4S)-4-(mesylamino)cyclohexyl]ethylamino}-1-(5-fluoro-3-pyridyl)-1-ethanol]",> 75,< 25
"COc1ccc(CC23CCC([C@H](O)c4cccc(F)c4)(CC2)N3)cc1 [Compound 401, (R)-(m-fluorophenyl){4-[(p-methoxyphenyl)methyl]-7-azabicyclo[2.2.1]hept-1-yl}methanol]",> 75,< 25

Structure (SMILES),Emax at 10 µM [1] [%],Emax at 10 µM [2] [%]
"CC1(C)CC[C@H]([C@H](O)c2cccc(O)c2)N1 [Compound 112, m-{(R)-[(R)-5,5-dimethyl-2-pyrrolidinyl]hydroxymeth-yl}phenol]",> 75,< 25
"CC(C)(C[C@H]1CC[C@@H](C(=O)O)CC1)NC[C@H](O)c1cccc(F)c1 [Compound 331, (1S,4s)-4-{2-[(R)-2-(m-fluorophenyl)-2-hydroxyethylamino]-2-methylpropyl}cyclohexanecarboxylic acid]",25 to 50,< 25
"CC(C)(NC[C@H](O)c1cncc(F)c1)[C@H]1CC[C@H](O)CC1 [Compound 285, (R)-1-(5-fluoro-3-pyridyl)-2-{1-methyl-1-[(1r,4R)-4-hydroxycyclohexyl]ethyl-amino}-1-ethanol]",50 to 75,< 25
"CC(C)(NC[C@H](O)c1cccc(F)c1)[C@H]1CC[C@H](OCc2ccccc2)CC1 [Compound 279, (R)-1-(m-fluorophenyl)-2-{1-methyl-1-[(1r,4R)-4-(benzyloxy)cyclohexyl]eth-ylamino}-1-ethanol]",50 to 75,< 25
"CCC[C@@H](C)NC[C@H](O)c1ccc(F)cc1 [Compound 52, (R)-2-[(R)-1-methylbutylamino]-1-(p-fluorophenyl)-1-ethanol]",50 to 75,< 25
"CCCCNCC(O)c1cccc(O)c1 (stereo not shown) [Compound 15, 2-(butylamino)-1-(m-hydroxyphenyl)-1-ethanol]",50 to 75,< 25
"CS(=O)(=O)N[C@H]1CC[C@H](C[C@@H]2CC[C@H]([C@H](O)c3cccc(F)c3)N2)CC1 [Compound 504, (R)-[(2R,5S)-5-{[(1r,4S)-4-(mesylamino)cyclohexyl]methyl}-2-pyrrolidinyl](m-fluorophenyl)methanol]",50 to 75,< 25
"CCC(C)NCC(O)c1ccc(O)cc1 (stereo not shown) [Compound 5, 2-(sec-butylamino)-1-(p-hydroxyphenyl)-1-ethanol]",50 to 75,< 25
"CC1(C)C[C@@H]([C@@H](O)c2cncc(F)c2)N1 [Compound 215, (S)-[(S)-4,4-dimethyl-2-azetidinyl](5-fluoro-3-pyridyl)methanol]",25 to 50,< 25
"CC1(C)C[C@H]([C@@H](O)c2ccccc2F)N1 [Compound 203, (S)-[(R)-4,4-dimethyl-2-azetidinyl](o-fluorophenyl)methanol]",25 to 50,< 25
"CO[C@H]1CC[C@H](C[C@]2(C)CC[C@H]([C@@H](O)c3cccc(F)c3)N2)CC1 [Compound 363, (S)-[(2R,5S)-5-methyl-5-{[(1r,4S)-4-methoxycyclohexyl]methyl}-2-pyrrolidinyl](m-fluorophenyl)methanol]",> 75,< 25
"O[C@H](c1cccc(F)c1)C12CCC(COCc3ccc(OC(F)(F)F)cc3)(CC1)N2 [Compound 488, (R)-(m-fluorophenyl)(4-{[(p-trifluoromethoxyphenyl)methoxy]methyl}-7-azabicyclo[2.2.1]hept-1-yl)methanol]",< 25,< 25
"CC(C)(C[C@H]1CC[C@@H](NS(C)(=O)=O)CC1)NC[C@H](O)c1cccc(C(F)(F)F)n1 [Compound 463, (S)-2-{1,1-dimethyl-2-[(1s,4R)-4-(mesylamino)cyclohexyl]ethylamino}-1-[6-(trifluoromethyl)-2-pyridyl]-1-ethanol]",50 to 75,< 25
"CO[C@H]1CC[C@H](C[C@H]2CC[C@H]([C@@H](O)c3ccccc3F)N2)CC1 [Compound 338, (S)-[(2R,5R)-5-{[(1r,4R)-4-methoxycyclohexyl]methyl}-2-pyrrolidinyl](o-fluorophenyl)methanol]",50 to 75,< 25
"CO[C@H]1CC[C@H](C(C)(C)NC[C@H](O)c2cncc(F)c2)CC1 [Compound 240, (R)-1-(5-fluoro-3-pyridyl)-2-{1-methyl-1-[(1r,4R)-4-methoxycyclohexyl]ethyl-amino}-1-ethanol]",> 75,< 25
CC(C)(C[C@H]1CC[C@H](NC(=O)OC(C)(C)C)CC1)NC[C@H](O)c1cccc(F)c1 [Compound 420],50 to 75,25 to 50
"CC(=O)N[C@H]1CC[C@H](CC(C)(C)NC[C@@H](O)c2cccc(C#N)n2)CC1 [Compound 427, N-[(1R,4r)-4-{2-[(R)-2-(6-cyano-2-pyridyl)-2-hydroxyethylamino]-2-methylpropyl}cyclohexyl]acetamide]",< 25,< 25
